Laboratory results from ChEMBL document CHEMBL3399999, “Anti-trypanosomal cadinanes synthesized by transannular cyclization of the natural sesquiterpene lactone nobilin” (Bioorg Med Chem, 2015).

What was measured:
[1] = Selectivity index, ratio of IC50 for rat L6 cells to IC50 for bloodstream forms of Trypanosoma brucei rhodesiense STIB 900; format: toxicity, cell-based; details: read-out: Ratio IC50
[2] = tested on: Trypanosoma brucei rhodesiense; assay: Antiprotozoal activity against bloodstream forms of Trypanosoma brucei rhodesiense STIB 900 after 70 hrs by Alamar blue assay; format: functional, organism-based; details: STIB 900, 70 h
L6 = assay: Cytotoxicity against rat L6 cells; format: cell-based

| IC50 [2] [µM] | Structure (SMILES) | selectivity ratio [1] | IC50 (L6) [µM] |
| --- | --- | --- | --- |
| 50.5 | C=C(C(=O)O)[C@H]1[C@@H]2C=C(C)[C@@H](O)C[C@H]2[C@](C)(O)C[C@@H]1OC(=O)/C(C)=C\C | > 2 | > 100 |
| 14.8 | C=C(C(=O)O)[C@H]1[C@@H]2C=C(C)[C@@H](O)C[C@@H]2[C@](C)(O)C[C@@H]1OC(=O)/C(C)=C\C | 3.3 | 49 |
| 1.44 | C=C1C(=O)O[C@]23C=C(C)[C@@H](O)C[C@@H]2[C@H](C)C[C@H](OC(=O)/C(C)=C\C)[C@@H]13 | 1.5 | 2.12 |
| 0.46 | C=C1C(=O)O[C@@]23C=C(C)[C@@H](O)C[C@@H]2[C@@H](C)C[C@H](OC(=O)/C(C)=C\C)[C@@H]13 | 2.4 | 1.11 |
| 31.1 | C=C(C(=O)O)[C@H]1[C@@H]2C=C(C)C(=O)C[C@@H]2[C@@H](C)C[C@@H]1OC(=O)/C(C)=C\C | 1.6 | 49.1 |
| 1.54 | C=C(C)C(=O)O[C@H]1C/C(C)=C/C[C@H](O)/C(C)=C\C2OC(=O)C(=C)[C@@H]21 (single isomer, unassigned) | 6.1 | 9.38 |
| 3.48 | C=C1C(=O)OC2/C=C(/C)[C@@H](O)C/C=C(\C)C[C@H](OC(=O)/C(C)=C/C)[C@@H]12 (single isomer, unassigned) | 2.9 | 10.2 |
|  | Nc1nc(N)nc(Nc2ccc([As]3SCC(CO)S3)cc2)n1 (stereo unspecified) [MELARSOPROL] | > 5000 | 29.1 |
| 3.19 | C=C1C(=O)O[C@@H]2/C=C(/C)[C@@H](O)C/C=C(\C)C[C@H](OC(=O)/C(C)=C\C)[C@@H]12 [NOBILIN] | 2.1 | 6.64 |
